Data published in patent publication US10703698B2, “Compounds which activate estrogen receptors and compositions and methods of using the same” (The Board of Trustees of the University of Illinois, priority 2016, dated 2020).

How the values were obtained:
[1] = target: T1, purified full-length human ERα (Homo sapiens, UniProt P03372); assay: competitive radiometric binding assay, relative binding affinity (RBA); conditions: relative to estradiol = 100
T1 construct: using purified full-length human ERα and ERβ
T1 sequence (P03372 1-595): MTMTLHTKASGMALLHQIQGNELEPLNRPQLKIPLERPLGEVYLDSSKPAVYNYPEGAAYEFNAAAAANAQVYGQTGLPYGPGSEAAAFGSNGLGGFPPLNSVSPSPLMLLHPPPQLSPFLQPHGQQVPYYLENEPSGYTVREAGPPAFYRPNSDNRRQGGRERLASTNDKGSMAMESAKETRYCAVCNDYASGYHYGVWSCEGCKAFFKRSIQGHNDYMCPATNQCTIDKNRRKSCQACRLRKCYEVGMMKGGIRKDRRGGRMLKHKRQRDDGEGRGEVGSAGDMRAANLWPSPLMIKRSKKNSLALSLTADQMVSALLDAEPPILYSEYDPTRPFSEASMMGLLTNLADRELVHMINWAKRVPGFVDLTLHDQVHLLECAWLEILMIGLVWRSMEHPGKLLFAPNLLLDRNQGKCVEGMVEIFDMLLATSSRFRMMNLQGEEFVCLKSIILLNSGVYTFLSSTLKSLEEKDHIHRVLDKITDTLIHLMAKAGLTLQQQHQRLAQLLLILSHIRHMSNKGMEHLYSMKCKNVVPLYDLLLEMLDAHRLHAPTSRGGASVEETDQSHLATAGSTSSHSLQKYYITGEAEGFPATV
Source text: (§1) FIG. 1. […] […]

[2] = target: T2, purified full-length human ERβ (Homo sapiens, UniProt Q92731); assay: as above; conditions: relative to estradiol = 100
T2 construct: using purified full-length human ERα and ERβ
T2 sequence (Q92731 whole entry): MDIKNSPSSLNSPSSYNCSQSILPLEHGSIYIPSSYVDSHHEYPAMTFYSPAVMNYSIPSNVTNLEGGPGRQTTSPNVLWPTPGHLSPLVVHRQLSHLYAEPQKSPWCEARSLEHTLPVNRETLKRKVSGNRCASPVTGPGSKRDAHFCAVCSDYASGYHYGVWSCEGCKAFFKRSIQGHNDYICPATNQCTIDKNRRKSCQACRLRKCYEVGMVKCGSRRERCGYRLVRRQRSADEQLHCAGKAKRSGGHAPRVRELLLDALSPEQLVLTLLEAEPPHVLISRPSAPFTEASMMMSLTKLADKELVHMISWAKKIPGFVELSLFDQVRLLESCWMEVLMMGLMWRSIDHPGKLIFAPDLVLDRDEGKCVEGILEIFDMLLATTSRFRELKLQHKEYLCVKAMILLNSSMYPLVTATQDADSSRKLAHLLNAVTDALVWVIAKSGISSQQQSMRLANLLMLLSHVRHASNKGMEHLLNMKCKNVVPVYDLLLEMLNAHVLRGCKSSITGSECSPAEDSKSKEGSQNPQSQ
Source text: as §1

PgR gene = assay: PgR (genomic gene) mRNA expression, qPCR; conditions: MCF-7 cells; 1 μM PaPE or 10 nM E2 for 4 h where stated; versus vehicle or E2
Source text: (§2) Quantitation of signal intensities is shown in panel at the right.

LRRC54 gene = assay: LRRC54 (non-genomic gene) mRNA expression, qPCR; conditions: for LRRC54 (non-genomic gene) mRNA expression, in words: MCF-7 cells, 1 μM PaPE or 10 nM E2 for 4 h where stated, versus vehicle, E2 or compound 2
Source text: as §2

LRRC54 gene vs PgR gene = assay: preferential activation of non-genomic (LRRC54) over genomic (PgR) gene; conditions: relative to activation by E2

ERα RBA (relative binding affinity) [1]	ERβ RBA (relative binding affinity) [2]	Structure (SMILES)	PgR (genomic gene) mRNA expression, in words (PgR gene)	LRRC54 (non-genomic gene) mRNA expression, in words (LRRC54 gene)	LRRC54 stimulation compared to E2 (LRRC54 gene; FIG. 14) [%]	preference for activation of the non-genomic pathway (LRRC54 over PgR), in words (LRRC54 gene vs PgR gene)
<0.001	0.002 ± 0.001	Cc1cc(-c2cc(C)c(O)c(C)c2)ccc1CO [Compound 26]	slight higher than the vehicle level	–	–	–
0.003 ± 0.001	0.003 ± 0	Cc1cc(-c2ccc(CO)c(C(F)(F)F)c2)cc(C)c1O [Compound 27]	slight higher than the vehicle level	–	–	–
0.002 ± 0.001	0.002 ± 0.001	COC1CC(O)c2ccc(-c3cc(C)c(O)c(C)c3)cc21 (stereo not drawn) [Compound 30]	elevated both genomic and nongenomic gene expression to a higher level than does its parent compound 29	elevated both genomic and nongenomic gene expression to a higher level than does its parent compound 29	–	–
0.005 ± 0.001	0.004 ± 0	Cc1cc(-c2cccc(CO)c2)cc(C)c1O [Compound 24]	slight higher than the vehicle level	–	–	–
0.001 ± 0	0.006 ± 0.001	Cc1cc(-c2ccc3c(c2)CCC3Cl)cc(C)c1O (stereo not drawn) [Compound 8, 4-(1-chloro-2,3-dihydro-1H-inden-5-yl)-2,6-dimethylphenol]	–	stimulation of the nongenomic gene (LRRC54), but to a lesser degree than compound 2	50	–
0.001	0.001	Cc1cc(-c2cccc(CCO)c2)cc(C)c1O [Compound 44, 3′-(2-hydroxyethyl)-3,5-dimethyl-[1,1′-biphenyl]-4-ol]	–	preferentially stimulate LRRC54 better than E2	–	–
–	–	OCc1cc(-c2ccc3c(c2)CCC3O)ccc1O (stereo not drawn) [Compound 57, 5-(4-hydroxy-3-(hydroxymethyl)phenyl)-2,3-dihydro-1H-inden-1-ol]	–	increases the expression of the non-genomic LRRC54 gene	–	considerable non-genomic gene selectivity
–	–	OCc1cc(-c2cc(Cl)c(O)c(Cl)c2)ccc1O [Compound 64, 3,5-Dichloro-3′-(hydroxymethyl)-[1,1′-biphenyl]-4,4′-diol]	–	expression level is less than for compound 2	–	selective expression of the non-genomic LRRC54 gene compared to E2
–	–	Cc1cc(-c2ccc(O)c(CO)c2)cc(C)c1O [Compound 59, 3′-(hydroxymethyl)-3,5-dimethyl-[1,1′-biphenyl]-4,4′-diol]	–	expression level is less than for compound 2	–	selective expression of the non-genomic LRRC54 gene compared to E2
0.001 ± 0	0.002 ± 0.001	Cc1cc(C)cc(-c2ccc3c(c2)CCC3O)c1 (stereo not drawn) [Compound 12, 5-(3,5-dimethylphenyl)-2,3-dihydro-1H-inden-1-ol]	strongly stimulate the genomic gene PgR	some non-genomic activity	–	–
0.005 ± 0.001	0.190 ± 0.04	Oc1ccc(-c2ccc3c(c2)CCC3O)cc1 (stereo not drawn) [Compound 32]	stimulate PgR gene expression at a level close to that of E2	–	–	–
0.002	0.004	Cc1cc(-c2ccc3c(c2)CCC3O)ccc1O (stereo not drawn) [Compound 55, 5-(4-hydroxy-3-methylphenyl)-2,3-dihydro-1H-inden-1-ol]	stimulated two fold greater than that with E2	–	–	–
